Test results taken from paper PMC6724072, “Biotransformation of the Mycotoxin Enniatin B1 by CYP P450 3A4 and Potential for Drug-Drug Interactions” (Metabolites, 2019).
Like-named read-outs stand apart in the source and are kept apart here.

Columns and labels:
CYP3A [1] = tested on: CYP3A
CYP3A [2] = assay: in vitro; details: human, microsomes, pH 7.4
CYP3A4 [3] = details: cited from earlier work
CYP3A4/5 = details: HLM, 10 µM DON and […] ENNB1
CYP3A4 [4] = target: T1, CYP3A4 (Homo sapiens, UniProt P08684, S18F); details: ND; 15 min; DON 10 µM and 50 µM; different ENNB1 concentrations
CYP3A4 [5] = target: T1, CYP3A4; details: for PGS hydroxylation rate (sum of 2β- and 6β-OH-PGS): ND, without DON, mean ± SEM
CYP3A [6] = details: porcine hepatic microsomes; cited from earlier work
CYP3A4 [7] = target: T1, CYP3A4
CYP3A4 [8] = tested on: CYP3A4; design: method as in PMID 16467307; details: read-out: Ks; cited from earlier work
[9] = ENNB1 substrate depletion assay in human liver microsomes; assay type: in vitro ADME; details: HLM
Description: (§1) The kinetic parameters were derived in HLM assays from the substrate depletion rate constants (ke) that were determined by regression analysis of measured peak areas of the added substrate versus time curves (A(t) = b + a*e^−ket), as described before. Briefly, the assay half-lifes (t1/2, assay = ln2/ke) and assay clearances (CLassay = Vassay*ke) were calculated under consideration of the assay volume (Vassay). Disregarding the potential protein binding of the substrate in the reaction mixture (assuming that the fraction unbound in the assay (fu, assay ~ 1)), the determined assay clearances approximated the intrinsic assay clearances (CLint, assay), which can be described by the Michaelis–Menten equation parameters maximal velocity (vmax, assay) and […] (KM, assay) under the condition that the substrate concentration is well below the KM-value (CLint, assay = vmax, assay/KM, assay). The KM, assay for ENNB1 depletion was determined with different initial concentrations by plotting the determined depletion rate constants versus the respective concentrations. The inflection point of the curve in a lin-log plot represented the KM-value, which occurred when ke is half of the theoretical maximum k0 at infinitesimally low ENNB1 concentrations (ke = k0[ENNB1]→0 *(1 − [ENNB1]/([ENNB1] + KM)).
ENNB1 and its major biotransformation products were analysed while using a Finnigan LTQ linear ion trap mass spectrometer (Thermo Fisher Scientific Inc., Waltham, MA, USA) that was coupled to an ACQUITY UPLC System (Waters). Separation was achieved on a 50 × 2.1-mm i.d. C18 3-μm SunFire column (Waters) with 0.5 μm pre-column filter (Supelco, Bellefonte, PA, USA). The mobile phase was composed of water (A) and MeCN (B) (both containing 2 mM NH4COOH and 2 mM HCOOH). The optimised linear gradient started at 40% B and was held for 1.5 min, before it was raised to […] over 14.5 min. The column was flushed with […] for 2 min, returned to 40% B, and equilibrated for 2.0 min. The total run time was 20 min.
ENNB1 and its putative metabolites were identified by their molecular weights (mass-to-charge (m/z) ratios) and specific retention times. In addition, the MS^n data of the sodiated molecular ions were specified in fragmentation experiments and used for confirmation. The measured peak areas of the ammoniated molecular ions ([M+NH4]^+) were used for the determination of in vitro kinetic parameters and for quantification purposes.

[10] = In vitro-to-in vivo extrapolation of kinetic parameters (well-stirred liver model); assay type: in vitro ADME
Description: as §1
The CLint, assay in HLM was upscaled to the assay-independent, intrinsic liver clearance (CLint = CLint, assay*MRI*RLW/Protassay) by considering the amounts of microsomal protein in the assay (Protassay), human relative liver weight (RLW), and human microsomal recovery index (MRI) (Table 1). In vitro-to-in vivo extrapolation (IVIVE) was performed by applying the well-stirred liver model and calculating the systemic blood clearances (CLb) from the CLint, while considering the human hepatic blood flow (Q) (CLb = Q*CLint*fu,b/(Q + CLint*fu,b)). […] The maximal bioavailability (fmax) after oral application was calculated under the assumption of complete absorption from the gastrointestinal tract (fa = 1) as fmax = 1 − CLb/Q.

[11] = design: method as in PMID 24239892, PMID 23598119; details: pigs; cited from earlier work
[12] = design: method as in PMID 27632250; details: chicken; cited from earlier work
in vitro = details: human, microsomes, pH 7.4
female mice = tested on: female mice; design: method as in doi:10.2903/sp.efsa.2018.EN-1406; details: cited from earlier work

T1 sequence (P08684 with tags, fused parts or gaps S18F limits assumed): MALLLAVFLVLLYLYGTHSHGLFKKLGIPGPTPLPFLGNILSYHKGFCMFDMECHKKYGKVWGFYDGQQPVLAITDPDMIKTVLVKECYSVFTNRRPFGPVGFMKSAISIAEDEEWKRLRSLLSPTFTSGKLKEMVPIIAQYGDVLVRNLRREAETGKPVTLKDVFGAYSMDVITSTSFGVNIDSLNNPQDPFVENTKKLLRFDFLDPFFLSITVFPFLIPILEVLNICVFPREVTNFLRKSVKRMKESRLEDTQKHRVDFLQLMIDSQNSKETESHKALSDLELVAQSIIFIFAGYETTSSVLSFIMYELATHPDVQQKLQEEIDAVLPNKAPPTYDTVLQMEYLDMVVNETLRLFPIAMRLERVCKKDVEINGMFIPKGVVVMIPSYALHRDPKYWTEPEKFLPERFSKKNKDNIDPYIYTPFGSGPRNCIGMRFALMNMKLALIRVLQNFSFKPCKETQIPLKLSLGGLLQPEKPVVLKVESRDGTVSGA
T1 sequence (P02647 79-267 partner limits assumed): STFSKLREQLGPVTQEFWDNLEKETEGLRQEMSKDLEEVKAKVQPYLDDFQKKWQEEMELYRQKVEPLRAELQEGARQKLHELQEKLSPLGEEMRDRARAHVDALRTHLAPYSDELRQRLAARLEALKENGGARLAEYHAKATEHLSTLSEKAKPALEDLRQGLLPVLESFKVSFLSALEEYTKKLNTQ

## Cc1ncc2n1-c1ccc(Cl)cc1C(c1ccccc1F)=NC2 [MDZ, midazolam]
CYP3A [1]; human, pH 7.4
  initial MDZ detectable: about 0.2%
CYP3A [2]
  half-life: 12 min
CYP3A4 [3]; read-out: KM,1-OH-MDZ, 1-hydroxylation of MDZ
  Km: 3.9 µM
CYP3A4 [3]; read-out: KM,4-OH-MDZ, 4-hydroxylation of MDZ
  Km: 77.5 µM

## CC1=C[C@H]2O[C@@H]3[C@H](O)C[C@](C)([C@@]2(CO)[C@H](O)C1=O)[C@]31CO1 [DON, Deoxynivalenol]
CYP3A [1]; HLM, DON up to 50 µM
  effect on MDZ metabolite formation profiles: Only an indication of a slight change
CYP3A [1]; HLM, DON up to 50 µM, data not shown
  effect on MDZ depletion kinetics: did not have a significant effect
CYP3A4/5
  effect on formation of ENNB1 metabolites M3/4, M5, M6 (sum): inhibited the formation of the hydroxylated ENNB1 metabolites M3/4, M5, and M6 in HLM significantly
CYP3A4/5; data not shown
  effect on depletion of ENNB1: did not observe a significant difference
CYP3A4 [4]
  formation of hydroxylated ENNB1 metabolites vs assays only containing ENNB1: significantly lower
CYP3A4 [5]
  inhibition of the CYP3A4-dependent metabolism of the typical substrates: weak to moderate inhibition
CYP3A4 [5]; human, pH 7.4
  decrease of 2-OH ATVS lactone (minor product) formation: about 20%
CYP3A [6]
  reduction of CYP3A reactivity: about 20%

## CC[C@H](C)[C@H]1C(=O)O[C@H](C(C)C)C(=O)N(C)[C@@H](C(C)C)C(=O)O[C@H](C(C)C)C(=O)N(C)[C@@H](C(C)C)C(=O)O[C@H](C(C)C)C(=O)N1C [ENNB1, Enniatin B1]
[9]; 1 mL assay, 2 mg microsomal protein
  CLint, assay: 0.07 mL/min
[9]; incubation of 6 µM for 60 min
  unchanged molecule detectable: less than 4%
[9]; human, human liver microsomes, pH 7.4, ENNB1 concentration 3 µM, read-out: ke (converted)
  k el at 3 µM: 0.00108 s⁻¹
[9]; human, human liver microsomes, pH 7.4, substrate concentration 3 µM, read-out: t1/2, assay
  half-life at 3 µM: 11 min
[9]; human, liver microsomes, pH 7.4, derived from depletion assays with three ENNB1 concentrations (0.8; 3; 6 µM)
  Km: 10.1 µM
[10]; human liver microsomes, po, assuming complete absorption from the gastrointestinal tract, read-out: fmax (maximum oral bioavailability)
  bioavailability: 45%
[10]; human, MRI = 40 mg/g, RLW = 22 g/kg BW
  CLint: 1.72 L/(h×kg×BW)
[10]; human, well-stirred model, Q = 1.4 L/(h × kg), fu,b ≈ 1
  CLb: 0.77 L/(h×kg×BW)
CYP3A [1]; HLM, after 60 min, with ENNB1
  1,4-OH-MDZ level relative to ENNB1-free metabolism: reduced to the half
  1-OH-MDZ level relative to ENNB1-free metabolism: returned to normal
CYP3A [1]; HLM, first 15 min
  MDZ metabolite formation in presence of ENNB1: generally hindered
CYP3A4 [7]; ND, ENNB1 21 µM
  spin shift of CYP3A4 haem iron (binding): visible spectral change
[11]
  bioavailability: > 90%
[12]
  bioavailability: < 10%
In vitro
  half-life at […]: 12 min

## CC(=O)[C@H]1CC[C@H]2[C@@H]3CCC4=CC(=O)CC[C@]4(C)[C@H]3CC[C@]12C [PGS, progesterone, reference compound]
CYP3A4 [5]; PGS 15 μM
  PGS hydroxylation rate (sum of 2β- and 6β-OH-PGS): 5.3 ± 0.6 nmol/(min×nmol CYP3A4)
CYP3A4 [5]; PGS 40 μM
  PGS hydroxylation rate (sum of 2β- and 6β-OH-PGS): 10.4 ± 1.0 nmol/(min×nmol CYP3A4)

## CC(C)[C@H]1C(=O)O[C@H](C(C)C)C(=O)N(C)[C@@H](C(C)C)C(=O)O[C@H](C(C)C)C(=O)N(C)[C@@H](C(C)C)C(=O)O[C@H](C(C)C)C(=O)N1C [ENNB, Enniatin B]
Female mice
  no-observed adverse effect level (NOAEL): 0.18 mg/kg body-weight (bw)/day
[11]
  bioavailability: > 90%
[12]
  bioavailability: < 10%
